The results in this text go back to ChEMBL document CHEMBL2062423 (ACS Med Chem Lett, 2012).

Calls of active or inactive are those of the source. The calls are words filed in the database; no cut-off is given here.

In experiment [1] the target is Sodium-dependent dopamine transporter (Homo sapiens, UniProt Q01959). Briefly: Displacement of [3H]WIN-35,428 from human DAT expressed in mouse N2A cells after 15 mins by liquid scintillation counting. It counts as cell-based.
Experiment [2] concerns the target Sodium-dependent dopamine transporter (Rattus norvegicus) (UniProt P23977). Briefly: Binding affinity to DAT in rat striatal membrane at 10 nM incubated for 1.5 hrs prior to irradiation measured after 5 mins by photoaffinity labeling-based autoradiographic analysis in presence of D-methylphenidate. The note with it: Striatum, tested as the 125I-labelled form. It counts as cell membranes.

Experiment [3] shares this target. Briefly: Binding affinity to DAT in rat striatal membrane at 10 nM incubated for 1.5 hrs prior to irradiation measured after 5 mins by photoaffinity labeling-based autoradiographic analysis. It counts as cell membranes. The note with it: Striatum, tested as the 125I-labelled form.
For experiment [4] the target is unchanged. Briefly: Binding affinity to DAT in rat striatal membrane at 10 nM incubated for 1.5 hrs prior to irradiation measured after 5 mins by photoaffinity labeling-based autoradiographic analysis in presence of (-)-cocaine. It counts as cell membranes. The settings on record: Striatum, tested as the 125I-labelled form.

Chain of Sodium-dependent dopamine transporter (Q01959 whole entry): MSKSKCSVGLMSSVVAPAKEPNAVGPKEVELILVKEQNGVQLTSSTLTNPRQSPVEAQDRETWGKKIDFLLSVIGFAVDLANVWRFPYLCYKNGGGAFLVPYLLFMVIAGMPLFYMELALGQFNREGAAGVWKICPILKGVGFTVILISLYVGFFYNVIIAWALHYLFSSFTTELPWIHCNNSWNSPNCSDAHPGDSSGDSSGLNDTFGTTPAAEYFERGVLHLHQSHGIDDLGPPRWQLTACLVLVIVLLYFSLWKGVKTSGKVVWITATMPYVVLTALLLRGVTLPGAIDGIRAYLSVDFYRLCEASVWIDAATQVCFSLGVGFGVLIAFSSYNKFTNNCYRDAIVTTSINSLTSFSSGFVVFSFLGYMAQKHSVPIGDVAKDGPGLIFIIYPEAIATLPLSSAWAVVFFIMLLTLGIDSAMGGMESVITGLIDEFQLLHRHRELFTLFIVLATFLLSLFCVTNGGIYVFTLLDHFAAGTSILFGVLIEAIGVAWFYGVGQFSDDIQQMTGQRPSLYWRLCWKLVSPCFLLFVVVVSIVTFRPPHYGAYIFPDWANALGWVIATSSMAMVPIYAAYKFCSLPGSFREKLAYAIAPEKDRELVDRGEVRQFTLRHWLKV
Chain of Sodium-dependent dopamine transporter (Rattus norvegicus) (P23977 whole entry): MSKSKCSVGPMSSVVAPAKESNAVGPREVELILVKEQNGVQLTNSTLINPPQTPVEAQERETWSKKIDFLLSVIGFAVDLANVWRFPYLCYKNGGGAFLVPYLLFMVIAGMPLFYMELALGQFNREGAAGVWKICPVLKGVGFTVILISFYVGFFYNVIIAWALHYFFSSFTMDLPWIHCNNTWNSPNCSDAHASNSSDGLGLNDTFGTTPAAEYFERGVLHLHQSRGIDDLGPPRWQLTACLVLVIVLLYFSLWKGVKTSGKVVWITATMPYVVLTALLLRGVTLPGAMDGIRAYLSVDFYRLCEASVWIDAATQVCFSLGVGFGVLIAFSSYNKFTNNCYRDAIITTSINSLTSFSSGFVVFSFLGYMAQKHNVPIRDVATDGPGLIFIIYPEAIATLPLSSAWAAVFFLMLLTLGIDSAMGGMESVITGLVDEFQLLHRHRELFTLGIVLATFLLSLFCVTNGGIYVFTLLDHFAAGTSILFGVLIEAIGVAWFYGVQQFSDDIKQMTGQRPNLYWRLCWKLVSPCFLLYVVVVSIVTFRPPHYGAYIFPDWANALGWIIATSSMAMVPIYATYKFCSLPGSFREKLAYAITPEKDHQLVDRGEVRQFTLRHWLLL

In the case of `COC(=O)[C@H](c1ccc(Cl)c(Cl)c1)[C@H]1CCCCN1` (racemic), in experiment [1], affinity was put at a Ki of 1.8 nM.

As for `COC(=O)[C@H](c1ccc(N)cc1)[C@H]1CCCCN1` (racemic), the inhibition constant (Ki) (usually a measure of affinity in units of concentration, obtained from inhibition or displacement) in experiment [1] was determined as 6.3 nM.

Compound `COC(=O)[C@H](c1ccc([N+](=O)[O-])cc1)[C@H]1CCCCN1` (racemic) had an inhibition constant Ki in experiment [1] of 77 nM.

Take `COC(=O)[C@H](c1ccc(N=[N+]=[N-])c(I)c1)[C@H]1CCCCN1` (racemic): the result in experiment [2] and in experiment [4] was inactive. For the same compound, the result in experiment [3] was Active. In experiment [1], this compound showed a Ki of 4 nM.

In turn, `COC(=O)[C@H](c1ccc(N)c(I)c1)[C@H]1CCCCN1` (racemic) had a Ki in experiment [1] of 9.1 nM.

In experiment [1], `COC(=O)[C@H](c1ccc(N=[N+]=[N-])cc1)[C@H]1CCCCN1` (racemic) registered an inhibition constant (Ki) of 35 nM.
